# According to patent US8007991B2, “Three-dimensional physiological matrices for oncological testing, and methods for their production and use” (priority 2006, dated 2011):
# Tested on: Patient Sample GS-640, kidney tissue (renal cell carcinoma)
# Assay: Tumor fragment growth and invasion (cell migration) in three-dimensional gel matrix, 48-well plate chemotherapy screening
# Format: cell-based, human
# Conditions: 5 days treatment; for number of cells that have grown and invaded away from the solid tumor fragment / distance of cell migration away from the solid tumor fragment: 37 degrees Celsius; for number of cells that have grown and invaded away from the solid tumor fragment: 5% CO2, photomicrograph compared with untreated control (FIG. 5); for response to the drug (overall): renal cell carcinoma patient sample; for distance of cell migration away from the solid tumor fragment: 5% CO2, photomicrograph
# Description: FIGS. 1-8 are photographic and photomicrographic images which show, by way of example, use of the means and methods of the present invention with respect to a tissue sample removed from a patient. With respect to FIGS. 1-8, Patient Sample GS-640, comprising kidney tissue, was removed from the patient by a surgeon during surgery.
# Tissue analysis and screening in accordance with the invention were requested by the surgeon, and proper consent was obtained from the patient prior to surgical removal of a sample quantity of tissue from the RHS Kidney. The patient was diagnosed with renal cell carcinoma. A tissue sample of approximately 1 gram in quantity was removed from the patient during surgery, and was placed into a 25 ml sample jar, and immersed in sterile saline. The tumor tissue was kept at 4 degrees centigrade until processed for the screening of therapeutic compounds in accordance with the means and methods of the invention. All procedures were performed under sterile conditions in a bio-safety laminar flow hood.
# FIG. 1 is a photographic image showing the mechanical division of the sample into portions to be tested. The sample has been prepared by dissecting away any non viable tissue and blood prior to mincing into 1-2 mm pieces using sterile disposable scalpels.
# FIG. 2 is a photographic image showing tumor sample portions which have been placed into each well of a 48 well plate, and been submersed in a gel matrix mixture according to the invention. After insertion of the portions, the mixture was allowed to form into a gel at room temperature for approximately 30 minutes. Once the gel formed around the fully immersed tumor fragments, nutrient rich media was added as a liquid overlay that permeated the entire gel and tumor fragment.
# Each different chemotherapy and or dose of chemotherapy was added to a set of 6 wells out of the 48-well plate. A total of 7 different chemotherapies were assessed in this plate. One set of six wells were not treated with drug and thus acted as ‘control conditions’ for tumor fragment growth and invasion. Each of the eight vertical lanes containing six separate wells was marked with a symbol for each chemotherapy/dose used and noted correspondingly on data collection sheets. […] The plates were then placed in a conventional 37 degree Celsius incubator at 5% CO2.
# This image is thus representative of all wells at Day 0 with or without chemotherapeutics. Images were made with a 400× magnification phase contrast micrograph using ZEISS camera specs.
# Noteworthy is the halo of cells and increased cell density as compared with the results shown at Day 3 of the test. The lines on the images have been drawn to show the distance measurements within which approximately 95% of the migrating cells have migrated away from the margins of the tissue sample.
SMILES,number of cells that have grown and invaded away from the solid tumor fragment,response to the drug (overall),distance of cell migration away from the solid tumor fragment
N.N.[Cl][Pt][Cl] [Cisplatin],identical in appearance and cell numbers to the control sample,failed chemotherapy,–
"CC(=O)O[C@@]12CO[C@@H]1C[C@H](O)[C@@]1(C)C(=O)[C@H](O)C3=C(C)[C@@H](OC(=O)[C@H](O)[C@@H](NC(=O)OC(C)(C)C)c4ccccc4)C[C@@](O)([C@@H](OC(=O)c4ccccc4)[C@H]21)C3(C)C [Docetaxol, Docetaxel]",fewer number of invading cells than the control,moderate response,longer migratory distance than treatment with Taxol
"CC(=O)O[C@H]1C(=O)[C@@]2(C)[C@H]([C@H](OC(=O)c3ccccc3)[C@]3(O)C[C@H](OC(=O)[C@H](O)[C@@H](NC(=O)c4ccccc4)c4ccccc4)C(C)=C1C3(C)C)[C@]1(OC(C)=O)CO[C@@H]1C[C@@H]2O [Taxol, Paclitaxel]",a drop in both the distance and the number of cells,–,a drop in both the distance and the number of cells
